Laboratory results taken from patent publication US20160326547A1, “TRANSGENIC PRODUCTION OF HEPARIN” (LFB USA, INC., priority 2013, published 2016).
Entries after “also recorded” stand apart in the source; their conditions may differ.

Key:
lactating goats [1] = assay: Experiment 1: systemic (intravenous) administration of heparin, toxicity study in lactating goats; assay type: in vivo, goat
Experimental: (§1) A study was conducted to determine if the production of heparin in the mammary gland would also have a significant effect on the producing animal. The protein produced by the transgene can potentially affect the mammary gland directly. In addition, it is known that there is potential leakage of the protein into the systemic system. To assess the potential effects of systemic and infused heparin on the goat, the study outlined below was performed. Blood was drawn and milk collected from each milking animal at least once daily during two experiments to determine the effects of heparin administration relative to systemic and udder infusion routes. The levels of heparin, and clotting times as indicated by aPTT were calculated from blood serum. Milk volumes were measured and heparin levels in the milk were determined. In addition, the quality of the milk (color, consistency, evidence of clumping, blood, or mastitis) was noted. The general health of each animal was assessed daily, including a rectal temperature. Since heparin is an anticoagulant, animals were also inspected daily for any gross signs of bleeding, such as abnormal bruising or petechiae. Six normal, non-transgenic, lactating goats were fed approximately four pounds of specially formulated vegetarian goat feed, per day, and given a combination of timothy and alfalfa hay as well as free access to water and plain and mineralized salt blocks. As these were lactating animals, they were milked daily starting on the day they arrived. The milk volume was measured each day and a rectal temperature recorded Milk volumes and rectal temperatures prior to the first or second experiment can be seen below in Table 7. Animals were manually restrained so that the jugular vein could be identified. A 21-gauge ¾ inch butterfly needle (BD Vacutainer Blood Collection Set Ref 367251, Franklin Lakes, N.J. USA) was inserted into the vessel, and the blood was collected into 2-1.8 ml sodium citrate vacutainer tubes (BD Vacutainer, Buffered Na Citrate, Franklin Lakes, N.J. USA). After collection (or after blood collection and heparin administration—see below) the needle was removed, and pressure was applied at the collection site to stop any bleeding. The animal received positive reinforcement (grain reward) after each procedure. The animals were restrained as above. The butterfly needle used for blood collection described above is designed so that blood can be collected via a vacutainer blood collection tube, or a syringe can be attached. Thus, after blood collection, the part of the needle that connects with the blood collection tube was removed, and a syringe with heparin was attached and the heparin was slowly injected. An additional 0.4 ml of sterile normal saline was flushed through the needle to ensure that all heparin was delivered. In this way a single needle placement was used for both blood collection and heparin injection, and any additional stress relative to a second venipuncture site was avoided. All goats were milked using a portable milking machine, once every day starting the day the goats arrived. Animals were placed on a milking stand for this procedure. The general protocol for milking was as follows. Personnel doing the milking washed their hands thoroughly and donned latex examination gloves. The udder was cleaned using paper towels and water. The udder was then dried using clean paper towels. […]

lactating goats [2] = assay: Experiment 2: udder infusion of heparin, toxicity study in lactating goats; assay type: in vivo, goat
Experimental: as §1, with “procedure.” for “procedure. The animals were restrained as above. The butterfly needle used for blood collection described above is designed so that blood can be collected via a vacutainer blood collection tube, or a syringe can be attached. Thus, after blood collection, the part of the needle that connects with the blood collection tube was removed, and a syringe with heparin was attached and the heparin was slowly injected. An additional 0.4 ml of sterile normal saline was flushed through the needle to ensure that all heparin was delivered. In this way a single needle placement was used for both blood collection and heparin injection, and any additional stress relative to a second venipuncture site was avoided.”, “towels. The teat was cleaned again using alcohol wipes, and pre-dip (FS-106 Sanitizing Teat Dip, IBA Inc., Millbury, Mass. USA) was applied and allowed to dry. A small sample was expressed from the teat by hand to assess milk quality, perform a streak test, and to be frozen for further analysis. The milking machine was then attached to the udder. After milking, the teats were cleaned with alcohol, and post milking disinfectant was applied (Ultra Shield Sanitizing Barrier Teat Dip, IBA Inc., Millbury, Mass. USA). The volume of milk was determined, and the small sample was frozen and stored in a −80° C. chest freezer for subsequent testing. The six milking goats were divided into 3 groups of 2 goats. All goats were milked daily with a milking machine, and had blood samples taken. After milking and blood collection, goats had their udders infused with heparin using a teat infusion cannula (Udder Infusion Cannula, IBA Inc., Millbury, Mass. USA). Each group received either a low (25,000 Units), medium (100,000 Units), or high (500,000 Units) dose of infused heparin, equivalent to the 3 different expression levels being explored on a per liter of milk basis. Volumes infused were less than 50 ml per udder. This protocol was performed for a total of seven days.” for “towels.”

[3] = Medium dose udder infusion (100,000 units per liter), Animal 4, days 1-8, day 1
[4] = Medium dose udder infusion (100,000 units per liter), Animal 4, days 1-8, day 2
[5] = Medium dose udder infusion (100,000 units per liter), Animal 4, days 1-8, day 3
[6] = Medium dose udder infusion (100,000 units per liter), Animal 4, days 1-8, day 4
[7] = Medium dose udder infusion (100,000 units per liter), Animal 4, days 1-8, day 5
[8] = Medium dose udder infusion (100,000 units per liter), Animal 4, days 1-8, day 6
[9] = Medium dose udder infusion (100,000 units per liter), Animal 4, days 1-8, day 7
[10] = goat infused with the highest levels
[11] = udder infusion, low or medium dose for a week

Substance: heparin
- aPTT (lactating goats [1]; High dose (31,000 Units IV TID), noon and 4 PM samples, above instrument maximum): > 124 s
- aPTT overnight between the two high doses (lactating goats [1]; High dose IV, second High AM sample prior to AM dose): low 40's; also recorded: dropped to more normal levels overnight
- Lung sounds (lactating goats [1]; High dose IV, second day, noon and 4 PM examinations): increase in lung sounds in one animal
- Petechiae or abnormal bleeding (lactating goats [1]; IV heparin over 6 days, any dose): no obvious gross signs of bleeding; also recorded: no evidence of petechiae or abnormal bleeding
- Milk volumes and body temperatures (lactating goats [1]; any IV dose): little, if any, effect; also recorded: not affected
- Milk volume (lactating goats [2]; Low dose udder infusion (25,000 units/liter), Animal 1, days 1-8 (daily infusion days 1-7), day 1): 2.25 L
- Milk volume (lactating goats [2]; Low dose udder infusion (25,000 units/liter), Animal 1, days 1-8 (daily infusion days 1-7), day 3): 2.2 L
- Milk volume (lactating goats [2]; Low dose udder infusion (25,000 units/liter), Animal 1, days 1-8 (daily infusion days 1-7), day 4): 2.0 L
- Milk volume (lactating goats [2]; Low dose udder infusion (25,000 units/liter), Animal 1, days 1-8 (daily infusion days 1-7), day 5): 1.9 L
- Milk volume (lactating goats [2]; Low dose udder infusion (25,000 units/liter), Animal 1, days 1-8 (daily infusion days 1-7), day 6): 1.8 L
- Milk volume (lactating goats [2]; Low dose udder infusion (25,000 units/liter), Animal 1, days 1-8 (daily infusion days 1-7), day 7): 1.7 L
- aPTT time (lactating goats [2]; Low dose udder infusion (25,000 units/liter), Animal 1, days 1-8, day 1): 23.2 s
- aPTT time (lactating goats [2]; Low dose udder infusion (25,000 units/liter), Animal 1, days 1-8, day 2): 36 s
- aPTT time (lactating goats [2]; Low dose udder infusion (25,000 units/liter), Animal 1, days 1-8, day 3): 37 s
- aPTT time (lactating goats [2]; Low dose udder infusion (25,000 units/liter), Animal 1, days 1-8, day 4): 34.9 s
- aPTT time (lactating goats [2]; Low dose udder infusion (25,000 units/liter), Animal 1, days 1-8, day 5): 34.5 s
- aPTT time (lactating goats [2]; Low dose udder infusion (25,000 units/liter), Animal 1, days 1-8, day 6): 34.6 s
- aPTT time (lactating goats [2]; Low dose udder infusion (25,000 units/liter), Animal 1, days 1-8, day 7): 33.5 s
- aPTT time (lactating goats [2]; Low dose udder infusion (25,000 units/liter), Animal 1, days 1-8, day 8): 33.1 s
- Milk volume (lactating goats [2]; Medium dose udder infusion (100,000 units per liter), Animal 2, days 1-8, day 1): 2 L
- Milk volume (lactating goats [2]; Medium dose udder infusion (100,000 units per liter), Animal 2, days 1-8, day 2): 1.35 L
- Milk volume (lactating goats [2]; Medium dose udder infusion (100,000 units per liter), Animal 2, days 1-8, day 3): 1.5 L
- Milk volume (lactating goats [2]; Medium dose udder infusion (100,000 units per liter), Animal 2, days 1-8, day 4): 1.6 L
- Milk volume (lactating goats [2]; Medium dose udder infusion (100,000 units per liter), Animal 2, days 1-8, day 5): 1.3 L
- Milk volume (lactating goats [2]; Medium dose udder infusion (100,000 units per liter), Animal 2, days 1-8, day 6): 1.2 L
- Milk volume (lactating goats [2]; Medium dose udder infusion (100,000 units per liter), Animal 2, days 1-8, day 7): 1.25 L
- Milk volume (lactating goats [2]; Medium dose udder infusion (100,000 units per liter), Animal 2, days 1-8, day 8): 1.75 L
- Milk volume (lactating goats [2]; [3]): 3.25 L
- aPTT time (lactating goats [2]; [3]): 24.7 s
- Milk volume (lactating goats [2]; [4]): 2.75 L
- aPTT time (lactating goats [2]; [4]): 32.7 s
- Milk volume (lactating goats [2]; [5]): 2.5 L
- aPTT time (lactating goats [2]; [5]): 44 s
- Milk volume (lactating goats [2]; [6]): 1.9 L
- aPTT time (lactating goats [2]; [6]): 30.2 s
- Milk volume (lactating goats [2]; [7]): 2.2 L
- aPTT time (lactating goats [2]; [7]): 42.4 s
- Milk volume (lactating goats [2]; [8]): 2.0 L
- aPTT time (lactating goats [2]; [8]): 42.1 s
- Milk volume (lactating goats [2]; [9]): 2.25 L
- aPTT time (lactating goats [2]; [9]): 22.9 s
- aPTT time (lactating goats [2]; Medium dose udder infusion (100,000 units per liter), Animal 4, days 1-8, day 8): 29.8 s
- Milk volume during heparin infusion into the udder (lactating goats [2]; all infusion levels): initial drop in milk volume
- Milk production (lactating goats [2]; [10]): dramatic decrease in milk production
- Udder response (lactating goats [2]; [10]): inflammatory response
- aPTT (lactating goats [2]; high levels of infused heparin): dramatically increased
- Goat health and milk production (lactating goats [2]; low and medium doses of systemic and infused heparin (overall conclusion)): minimal effects
- aPTT (lactating goats [2]; single daily udder infusions of low or medium dose for a week): ≤ 55 s
- Systemic effects (lactating goats [2]; udder infusion of the highest levels): high body temperature and increased respiratory sounds
- Body temperature (lactating goats [2]; [11]): little effect
- Signs of bleeding (lactating goats [2]; [11]): did not produce any signs of bleeding
- aPTT during washout period after heparin udder infusion (lactating goats [2]; washout after udder infusion): 20 to 40 s
